Test results published in patent US8617614B2, “Sustained release preparation for tissue regeneration therapy” (Ono Pharmaceutical Co., Ltd., priority 2006, dated 2013).

Key:
[1] = system: STZ induced diabetes model; experiment: Nephropathy ameliorating action: 24 h urinary excretion, STZ induced diabetes model; type: in vivo; details: urine, week 12; STZ rat; Test Group 3: 3 mg/kg oral twice daily
Procedure: Female Sprague-Dawley rats (8- to 11-week-old; Japan SLC, Inc.) were intraperitoneally administered 40 mg/kg of a citrate buffer (pH, approx. 4.5) of streptozotocin (STZ; Sigma). A normal control group was intraperitoneally given only the citrate buffer. Administration was carried out in accordance with the intended route of administration for clinical use. In Test Group 3, forced administration was carried out orally using a disposable syringe barrel and a rat stomach probe. In Test Group 4, intramuscular administration was carried out uniformly at four places within the muscle along the sciatic nerve in the femoral portion of the left leg. For subcutaneous administration in test Group 5, the animals were ether anesthetized, and subcutaneous administration was carried out in the dorsal region using a disposable syringe barrel and a disposable 25 G syringe needle. The volume of solution administered was computed based on the latest body weight. In week 12 from the start of test substance administration, the rats were transferred to a metabolic cage, given water ad libitum, and the urine was collected for 24 hours. […] Using the 7170 Clinical Analyzer (Hitachi, Ltd.), the total urinary protein (pyrogallol red method), creatinine (creatinase/F-DAOS method) and urine sugar were measured.

[2] = system: STZ induced diabetes model; experiment: Nerve conduction velocity, STZ induced diabetes model; type: in vivo; details: STZ rat, Test Group 3: 3 mg/kg oral twice daily
Procedure: Female Sprague-Dawley rats (8- to 11-week-old; Japan SLC, Inc.) were intraperitoneally administered 40 mg/kg of a citrate buffer (pH, approx. 4.5) of streptozotocin (STZ; Sigma). A normal control group was intraperitoneally given only the citrate buffer. Two weeks after STZ administration, and 4, 8 and 12 weeks after the start of test solution administration, the animals were anesthetized by the intraperitoneal administration of 30 to 45 mg/kg of pentobarbital. Fur was removed from the dorsolumbar region of the rat and the animal was immobilized in the prone position, following which a needle electrode for […] stimulation (NEC Medical Systems) was inserted near the sciatic nerve, a needle electrode for […] stimulation was inserted near the Achilles tendon on the same side, and a recording needle electrode (NEC Medical Systems) was inserted in the plantar muscle on the same side. After checking that the body temperature was in a range of 37 to 38° C., square-wave stimulation (0.5 Hz, 0.1 msec, submax voltage) to the distal and proximal stimulating electrodes was applied using an electrical stimulator (SEN-3301; Nihon Kohden Corporation). The evoked potential was led out via a measuring electrode, input through a bioelectric amplifier (AB-621G, Nihon Kohden Corporation) to an evoked electromyogram averaging program (MTS50061C, Medical Try System) and averaged ten times, and the nerve conduction velocity was computed from the respective distal and proximal conduction times and the electrode interval distances. Measurement was carried out on the left leg (treated side) and right leg (untreated side) in each test group, and the respective average values thereof used as the data. In Groups 2 to 5, the feeding blood sugar level two weeks after STZ administration was measured. Of rats with blood sugar levels above 300 mg/dL, severely diabetic rats were excluded therefrom, and the remaining rats were used as diabetes model animals. Groups were formed in such a way as to make the respective groups uniform with respect to nerve conduction velocity, blood sugar level and body weight. Administration was carried out in accordance with the intended route of administration for clinical use. In Test Group 3, forced administration was carried out orally using a disposable syringe barrel and a rat stomach probe. In Test Group 4, intramuscular administration was carried out uniformly at four places within the muscle along the sciatic nerve in the femoral portion of the left leg. For subcutaneous administration in test Group 5, the animals were ether anesthetized, and subcutaneous administration was carried out in the dorsal region using a disposable syringe barrel and a disposable 25 G syringe needle. The volume of solution administered was computed based on the latest body weight. The amount of microspheres administered indicates the amount of the present drug included.

SDF-1 = SDF-1 production promoting effect, angiogenesis kit culture, ELISA; type: cell-based, human; details: 100 nmol/L
Procedure: An angiogenesis kit (Kurabo Industries Ltd.) composed of normal human umbilical vein endothelial cells and normal human skin fibroblasts was procured and used.
Using a carbon dioxide incubator (BNA-121D) and using Angiogenesis Culture 2 provided with the angiogenesis kit as the liquid culture, culturing was carried out in a wet environment at 37° C. with 5% carbon dioxide/95% air.
Immediately after the kit arrived, the cells were cultured for 3 hours, following which the liquid culture was replaced and culturing was continued. Three days after the start of culturing, the liquid culture was again replaced. Six days after the start of culturing, treatment with the present drug was carried out by replacing the liquid culture. The treatment concentration was set to 100 nmol/L in each case. DMSO treatment was carried out as a negative control. Six, 24, 48 and 72 hours after treatment with the present drug, the culture supernatant was collected and furnished for measurement of the growth factors. The measured growth factors were EGF and SDF-1.
The culture supernatant was measured with the following ELISA kits.
Human SDF-1α Immunoassay (R&D Systems Inc., DSA00)

[3] = Influence on body weight, STZ induced diabetes model; type: in vivo; details: STZ rat, Test Group 3: 3 mg/kg oral twice daily
Procedure: Female Sprague-Dawley rats (8- to 11-week-old; Japan SLC, Inc.) were intraperitoneally administered 40 mg/kg of a citrate buffer (pH, approx. 4.5) of streptozotocin (STZ; Sigma). A normal control group was intraperitoneally given only the citrate buffer.
Administration was carried out in accordance with the intended route of administration for clinical use. In Test Group 3, forced administration was carried out orally using a disposable syringe barrel and a rat stomach probe. In Test Group 4, intramuscular administration was carried out uniformly at four places within the muscle along the sciatic nerve in the femoral portion of the left leg. For subcutaneous administration in test Group 5, the animals were ether anesthetized, and subcutaneous administration was carried out in the dorsal region using a disposable syringe barrel and a disposable 25 G syringe needle. The volume of solution administered was computed based on the latest body weight.
The rat body weights were measured before test substance administration and 14 weeks after the start of test substance administration.

[4] = system: hippocampal CA1 region nerve cells; experiment: Number of nerve cells in hippocampal CA1 region, rat 4-VO model (Nissl staining); type: in vivo
[5] = right leg (drug-untreated side)

O=C(O)COc1cccc2c1CCC=C2CCO/N=C(\c1ccccc1)c1cccnc1 [present drug, ({5-[2-({[(1E)-phenyl(pyridin-3-yl)methylene]amino}oxy)ethyl]-7,8-dihydronaphthalen-1-yl}oxy)acetic acid]
Total excretion (mg/24 hrs) Creatinine [1]: 116.76 ± 58.15 mg/24 hrs
Total excretion (mg/24 hrs) Total protein [1]: 245.7 ± 231.9 mg/24 hrs
left leg nerve conduction velocity relative to Test Group 2 ([2]; after 12 weeks): significant nerve conduction velocity increases
right leg nerve conduction velocity relative to Test Group 2 ([2]; at any of the times): A significant extension effect was not confirmed
Nerve conduction velocity (m/sec) 0 weeks ([2]; left leg (drug-treated side)): 37.5 ± 8.0 m/sec
Nerve conduction velocity (m/sec) 4 weeks ([2]; left leg (drug-treated side)): 37.8 ± 3.8 m/sec
Nerve conduction velocity (m/sec) 8 weeks ([2]; left leg (drug-treated side)): 40.8 ± 3.4 m/sec
Nerve conduction velocity (m/sec) 0 weeks [2, 5]: 38.7 ± 5.0 m/sec
Nerve conduction velocity (m/sec) 4 weeks [2, 5]: 39.0 ± 2.3 m/sec
Nerve conduction velocity (m/sec) 8 weeks [2, 5]: 39.9 ± 2.2 m/sec
Nerve conduction velocity (m/sec) 12 weeks [2, 5]: 41.3 ± 2.1 m/sec
SDF-1 relative to the solvent control group (SDF-1; 72 hours after treatment): significantly increased
SDF-1, Drug group (SDF-1; culture supernatant 72 hours after treatment): 383 ± 36.0 pg/mL
Body weight (g) 0 weeks [3]: 219.1 ± 12.2 g
body weight relative to Test Group 2 ([3]; week 14): significant weight decreased
number of hippocampal CA1 pyramidal nerve cells relative to the group given the medium (Test Group 3) ([4]; rat 4-VO Test 1, day 42, s.c. twice daily, present drug 10, ornoprostil 0.1, PGE1•αCD 1.5 and 3 mg/kg): significant increase
decrease in the number of hippocampal CA1 region nerve cells relative to Test Group 1 ([4]; rat 4-VO Test 2, Test Group 2: 10 mg/kg oral twice daily, day 8): significant suppression
number of hippocampal CA1 region nerve cells ([4]; rat 4-VO Test 2, Test Group 7: medium up to day 8, 10 mg/kg oral for 34 days from day 9): increasing trend
number of hippocampal CA1 region nerve cells relative to Test Group 4 ([4]; rat 4-VO Test 2, oral 1 mg/kg (Test Group 3)): significant increases
number of hippocampal CA1 region nerve cells relative to Test Group 4 ([4]; rat 4-VO Test 2, oral 10 mg/kg (Test Group 6)): significant increases
